Assay results published in EPA's ToxRefDB 2.

Columns and labels:
mouse [1] = details: Carcinogenicity, b6c3f1, Oral, Gavage/Intubation, dose end: 103 week, group: systemic
mouse [2] = details: Subchronic oral toxicity in rodents, b6c3f1, Gavage/Intubation, dose end: 13 week, group: systemic
rat [3] = details: Subchronic oral toxicity in rodents, fischer, Gavage/Intubation, dose end: 13 week, group: systemic
mouse [4] = details: Sub-acute repeat dose toxicity, b6c3f1, Oral, Gavage/Intubation, dose end: 14 day, group: systemic
rat [5] = details: Carcinogenicity, fischer, Oral, Gavage/Intubation, dose end: 103 week, group: systemic
rat [6] = details: Sub-acute repeat dose toxicity, fischer, Oral, Gavage/Intubation, dose end: 14 day, group: systemic
mouse [7] = details: Prenatal developmental toxicity study, cd1, Oral, Feed, dose end: 15 GD
rat [8] = details: Subchronic oral toxicity in rodents, fischer, Feed, dose end: 13 week, group: systemic
mouse [9] = details: Subchronic oral toxicity in rodents, b6c3f1, Feed, dose end: 13 week, group: systemic
mouse [10] = details: Multigenerational reproductive toxicity study, cd1, Oral, Feed, dose end: 2 generation
mouse [11] = details: Carcinogenicity; b6c3f1; Oral; Feed; dose end: 103 week; group: systemic; systemic / in life observation / clinical signs / [other] + systemic / pathology microscopic / ovary / atrophy + systemic / pathology …
mouse [12] = details: Sub-acute repeat dose toxicity, b6c3f1, Oral, Feed, dose end: 14 day, group: systemic
rat [13] = details: Carcinogenicity; fischer; Oral; Feed; dose end: 103 week; group: systemic; systemic / in life observation / clinical signs / muscle fasciculation + systemic / in life observation / clinical signs / skeletal muscle …
rat [14] = details: Sub-acute repeat dose toxicity, fischer, Oral, Feed, dose end: 14 day, group: systemic
rabbit = details: Prenatal developmental toxicity study, new zealand white, Oral, Gavage/Intubation, dose end: 19 GD
dog [15] = details: Chronic toxicity; beagle; Oral; Feed; dose end: 52 week; group: systemic; systemic / clinical chemistry / albumin / albumin + systemic / clinical chemistry / cholesterol / cholesterol + systemic / clinical …
rat [16] = details: Prenatal developmental toxicity study, sprague dawley, Oral, Gavage/Intubation, dose end: 15 GD
mouse [17] = details: Carcinogenicity; cd1; Oral; Feed; dose end: 97 week; group: systemic; systemic / in life observation / body weight / body weight + systemic / in life observation / body weight / body weight gain + systemic / …
rat [18] = details: Combined chronic toxicity/carcinogenicity, sprague dawley, Oral, Feed, dose end: 104 week, group: systemic
rat [19] = details: Multigenerational reproductive toxicity study, sprague dawley, Oral, Feed, dose end: 2 generation
dog [20] = details: Subchronic oral toxicity in nonrodent, beagle, Feed, dose end: 90 day, group: systemic, systemic / clinical chemistry / albumin / albumin + systemic / clinical chemistry / calcium / calcium + systemic / clinical chemistry / …
[21] = systemic / pathology microscopic / liver / vacuolization cytoplasmic
[22] = systemic / pathology microscopic / liver / vacuolization cytoplasmic + systemic / in life observation / clinical signs / defecation (…
[23] = systemic / pathology microscopic / liver / vacuolization cytoplasmic + systemic / in life observation / body weight / body weight + systemic…
[24] = systemic / pathology microscopic / liver / necrosis + systemic / pathology microscopic / liver / vacuolization cytoplasmic + systemic / in …
[25] = systemic / in life observation / body weight / body weight
[26] = systemic / pathology microscopic / liver / vacuolization cytoplasmic + systemic / pathology microscopic / liver / degeneration
[27] = systemic / pathology microscopic / liver / vacuolization cytoplasmic + systemic / pathology microscopic / liver / degeneration + systemic / …
[28] = systemic / in life observation / body weight / body weight + systemic / in life observation / clinical signs / abnormal posture + systemic…
[29] = group: developmental, systemic / in life observation / body weight / fetal weight
[30] = group: maternal, reproductive / offspring survival early / dead fetuses / dead fetuses
[31] = systemic / in life observation / body weight / body weight + systemic / in life observation / body weight / body weight gain + systemic / in…
[32] = group: offspring, systemic / in life observation / clinical signs / cannibalism
[33] = group: offspring, systemic / in life observation / clinical signs / cannibalism + developmental / offspring survival late / [other] / [other] + systemic / in …
[34] = group: parental, systemic / in life observation / body weight / body weight + systemic / in life observation / clinical signs / cannibalism + systemic / in …
[35] = group: parental, systemic / in life observation / food consumption / food consumption + systemic / in life observation / water consumption / water …
[36] = group: reproductive, reproductive / offspring survival early / birth index / birth index + reproductive / reproductive performance / dystocia / dystocia + …
[37] = group: reproductive, reproductive / reproductive performance / estrous cycle / abnormal
[38] = systemic / in life observation / clinical signs / [other]
[39] = systemic / in life observation / clinical signs / [other] + systemic / in life observation / clinical signs / fur (altered appearance) + …
[40] = systemic / in life observation / body weight / body weight gain + systemic / in life observation / clinical signs / [other] + systemic / in …
[41] = systemic / in life observation / clinical signs / lethargy + systemic / in life observation / clinical signs / fur (altered appearance) + …
[42] = group: developmental, developmental / developmental malformation / general / [other]
[43] = group: maternal, reproductive / reproductive performance / resorptions / resorptions + systemic / in life observation / body weight / body weight + systemic…
[44] = group: developmental, developmental / developmental malformation / bone / incomplete ossification
[45] = group: developmental, developmental / developmental malformation / bone / incomplete ossification + developmental / developmental malformation / bone / short …
[46] = group: maternal, systemic / in life observation / body weight / body weight gain + systemic / in life observation / clinical signs / [other] + systemic / in …
[47] = systemic / hematology / erythrocyte (rbc) count differential / erythrocyte (rbc) + systemic / hematology / hematocrit (hct) / hematocrit (…
[48] = group: offspring, systemic / in life observation / body weight / offspring (pup) weight + systemic / in life observation / body weight / offspring (pup) …
[49] = group: parental, systemic / in life observation / body weight / body weight gain
[50] = group: parental, systemic / in life observation / body weight / body weight gain + systemic / in life observation / body weight / body weight + systemic / in…

SMILES: OC[P+](CO)(CO)CO.[Cl-] [Tetrakis(hydroxymethyl)phosphonium chloride]
- LOAEL (mouse [1]; [21]): 7.5 mg/kg/day
- NOAEL (mouse [1]; [21]): < 7.5 mg/kg/day
- LEL (mouse [1]; [22]): 7.5 mg/kg/day
- NEL (mouse [1]; [22]): < 7.5 mg/kg/day
- LEL (mouse [2]; [21]): 15 mg/kg/day
- NEL (mouse [2]; [23]): 4.5 mg/kg/day
- NOAEL (mouse [2]; [23]): 15 mg/kg/day
- LOAEL (mouse [2]; systemic / pathology microscopic / liver / vacuolization cytoplasmic + systemic / pathology microscopic / liver / necrosis): 45 mg/kg/day
- NEL (rat [3]; systemic / in life observation / body weight / body weight + systemic / pathology microscopic / liver / necrosis + systemic / pathology …): 3.75 mg/kg/day
- LOAEL (rat [3]; [24]): 30 mg/kg/day
- NOAEL (rat [3]; [24]): 15 mg/kg/day
- LEL (rat [3]; [21]): 7.5 mg/kg/day
- LEL (mouse [4]; [25]): 18.8 mg/kg/day
- LOAEL (mouse [4]; [25]): 150 mg/kg/day
- NEL (mouse [4]; [25]): < 18.8 mg/kg/day
- NOAEL (mouse [4]; systemic / in life observation / body weight / body weight + systemic / in life observation / mortality / mortality): 75 mg/kg/day
- LOAEL (rat [5]; [26]): 3.75 mg/kg/day
- NOAEL (rat [5]; [26]): < 3.75 mg/kg/day
- LEL (rat [5]; [27]): 3.75 mg/kg/day
- NEL (rat [5]; [27]): < 3.75 mg/kg/day
- LEL (rat [6]; [25]): 18.8 mg/kg/day
- LOAEL (rat [6]; [25]): 37.5 mg/kg/day
- NEL (rat [6]; [28]): 9.4 mg/kg/day
- NOAEL (rat [6]; [28]): 18.8 mg/kg/day

SMILES: NC(=O)N/N=C/c1ccc([N+](=O)[O-])o1 [Nitrofurazone]
- LEL (mouse [7]; [29]): 81.7 mg/kg/day
- LOAEL (mouse [7]; [29]): > 81.7 mg/kg/day
- NEL (mouse [7]; [29]): 41.2 mg/kg/day
- NOAEL (mouse [7]; [29]): ≥ 81.7 mg/kg/day
- LEL (mouse [7]; [30]): 41.2 mg/kg/day
- LOAEL (mouse [7]; [30]): 41.2 mg/kg/day
- NEL (mouse [7]; [30]): 13.6 mg/kg/day
- NOAEL (mouse [7]; [30]): 13.6 mg/kg/day
- NEL (rat [8]; systemic / organ weight / liver / relative to body weight + systemic / in life observation / body weight / body weight + systemic / in life …): 7.5 mg/kg/day
- LOAEL (rat [8]; systemic / pathology microscopic / testes / degeneration): 15.5 mg/kg/day
- NOAEL (rat [8]; systemic / pathology microscopic / testes / degeneration + systemic / in life observation / body weight / body weight + systemic / in life …): 7.5 mg/kg/day
- LEL (rat [8]; systemic / pathology microscopic / testes / degeneration + systemic / organ weight / liver / relative to body weight): 15.5 mg/kg/day
- LOAEL (mouse [9]; [31]): > 188 mg/kg/day
- NEL (mouse [9]; [31]): 46.5 mg/kg/day
- NOAEL (mouse [9]; [31]): ≥ 188 mg/kg/day
- LEL (mouse [9]; systemic / in life observation / clinical signs / [other] + systemic / in life observation / clinical signs / excitation + systemic / in …): 93 mg/kg/day
- LEL (mouse [10]; [32]): 15 mg/kg/day
- NEL (mouse [10]; [32]): < 15 mg/kg/day
- LOAEL (mouse [10]; [33]): > 112 mg/kg/day
- NOAEL (mouse [10]; [33]): ≥ 112 mg/kg/day
- LOAEL (mouse [10]; [34]): > 112 mg/kg/day
- NOAEL (mouse [10]; [34]): ≥ 112 mg/kg/day
- LEL (mouse [10]; [35]): 15 mg/kg/day
- NEL (mouse [10]; [35]): < 15 mg/kg/day
- LOAEL (mouse [10]; [36]): > 112 mg/kg/day
- NOAEL (mouse [10]; [36]): ≥ 112 mg/kg/day
- LEL (mouse [10]; [37]): 15 mg/kg/day
- NEL (mouse [10]; [37]): < 15 mg/kg/day
- LEL (mouse [11]): 14 mg/kg/day
- LOAEL (mouse [11]): 14 mg/kg/day
- NEL (mouse [11]): < 14 mg/kg/day
- NOAEL (mouse [11]): < 14 mg/kg/day
- LOAEL (mouse [12]; [38]): 94.5 mg/kg/day
- NOAEL (mouse [12]; [38]): < 94.5 mg/kg/day
- LEL (mouse [12]; [39]): 94.5 mg/kg/day
- NEL (mouse [12]; [39]): < 94.5 mg/kg/day
- LEL (rat [13]): 11 mg/kg/day
- LOAEL (rat [13]): 11 mg/kg/day
- NEL (rat [13]): < 11 mg/kg/day
- NOAEL (rat [13]): < 11 mg/kg/day
- LOAEL (rat [14]; [40]): 125 mg/kg/day
- NOAEL (rat [14]; [40]): 62.5 mg/kg/day
- LEL (rat [14]; [41]): 31.5 mg/kg/day
- NEL (rat [14]; [41]): < 31.5 mg/kg/day
- LEL (rabbit; [42]): 20 mg/kg/day
- LOAEL (rabbit; [42]): 20 mg/kg/day
- NEL (rabbit; [42]): 15 mg/kg/day
- NOAEL (rabbit; [42]): 15 mg/kg/day
- LOAEL (rabbit; group: maternal, reproductive / reproductive performance / resorptions / resorptions): 20 mg/kg/day
- NEL (rabbit; [43]): 5 mg/kg/day
- NOAEL (rabbit; [43]): 15 mg/kg/day
- LEL (rabbit; group: maternal, systemic / in life observation / body weight / body weight): 10 mg/kg/day

SMILES: CN(C)C(=S)SSC(=S)N(C)C [Thiram]
- LEL (dog [15]): 0.84 mg/kg/day
- LOAEL (dog [15]): 0.84 mg/kg/day
- NEL (dog [15]): < 0.84 mg/kg/day
- NOAEL (dog [15]): < 0.84 mg/kg/day
- LEL (rat [16]; [44]): 7.5 mg/kg/day
- NEL (rat [16]; [44]): < 7.5 mg/kg/day
- LOAEL (rat [16]; [45]): 15 mg/kg/day
- NOAEL (rat [16]; [45]): 7.5 mg/kg/day
- LEL (rat [16]; [46]): 7.5 mg/kg/day
- LOAEL (rat [16]; [46]): 7.5 mg/kg/day
- NEL (rat [16]; [46]): < 7.5 mg/kg/day
- NOAEL (rat [16]; [46]): < 7.5 mg/kg/day
- LEL (mouse [17]): 24 mg/kg/day
- LOAEL (mouse [17]): 24 mg/kg/day
- NEL (mouse [17]): 2.5 mg/kg/day
- NOAEL (mouse [17]): 2.5 mg/kg/day
- LEL (rat [18]; [47]): 1.8 mg/kg/day
- NEL (rat [18]; [47]): < 1.8 mg/kg/day
- LOAEL (rat [18]; systemic / in life observation / body weight / body weight gain): 7.3 mg/kg/day
- NOAEL (rat [18]; systemic / in life observation / body weight / body weight gain + systemic / clinical chemistry / glucose / glucose + systemic / hematology…): 1.5 mg/kg/day
- LEL (rat [19]; [48]): 4.9 mg/kg/day
- LOAEL (rat [19]; [48]): 4.9 mg/kg/day
- NEL (rat [19]; [48]): 1.7 mg/kg/day
- NOAEL (rat [19]; [48]): 1.7 mg/kg/day
- LEL (rat [19]; [49]): 4.7 mg/kg/day
- LOAEL (rat [19]; [49]): 4.7 mg/kg/day
- NEL (rat [19]; [50]): 1.6 mg/kg/day
- NOAEL (rat [19]; [50]): 1.6 mg/kg/day
- LEL (dog [20]): 2.26 mg/kg/day
- LOAEL (dog [20]): 7.01 mg/kg/day
- NEL (dog [20]): < 2.26 mg/kg/day
- NOAEL (dog [20]): 2.26 mg/kg/day
